From US11866450B2, “Modulators of Cystic Fibrosis Transmembrane Conductance regulator, pharmaceutical compositions, methods of treatment, and process for making the modulators” (priority 2018, dated 2024)

Molecular target: CFTR-mediated chloride transport (Homo sapiens, UniProt P13569)
Assay type: cell-based
Details: enteroid cells incubated with test compound 18-24 hours, acute 10 μM forskolin and 300 nM Compound III; for Max. Activity: % of chloride transport with 3 μM Compound A, 3 μM Compound II and 300 nM acute Compound III triple combination control
Outline: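 Human intestinal enteroid cells incubated with compound 18–24 h at 37° C., then membrane potential dye (FLIPR) read 15 min after chloride-free stimulation with 10 μM forskolin, 100 μM IBMX and 300 nM Compound III. AUC expressed as % of triple-combination control (3 μM Compound A, 3 μM Compound II, 300 nM Compound III).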

Sequence of CFTR-mediated chloride transport (P13569 whole entry, looked up): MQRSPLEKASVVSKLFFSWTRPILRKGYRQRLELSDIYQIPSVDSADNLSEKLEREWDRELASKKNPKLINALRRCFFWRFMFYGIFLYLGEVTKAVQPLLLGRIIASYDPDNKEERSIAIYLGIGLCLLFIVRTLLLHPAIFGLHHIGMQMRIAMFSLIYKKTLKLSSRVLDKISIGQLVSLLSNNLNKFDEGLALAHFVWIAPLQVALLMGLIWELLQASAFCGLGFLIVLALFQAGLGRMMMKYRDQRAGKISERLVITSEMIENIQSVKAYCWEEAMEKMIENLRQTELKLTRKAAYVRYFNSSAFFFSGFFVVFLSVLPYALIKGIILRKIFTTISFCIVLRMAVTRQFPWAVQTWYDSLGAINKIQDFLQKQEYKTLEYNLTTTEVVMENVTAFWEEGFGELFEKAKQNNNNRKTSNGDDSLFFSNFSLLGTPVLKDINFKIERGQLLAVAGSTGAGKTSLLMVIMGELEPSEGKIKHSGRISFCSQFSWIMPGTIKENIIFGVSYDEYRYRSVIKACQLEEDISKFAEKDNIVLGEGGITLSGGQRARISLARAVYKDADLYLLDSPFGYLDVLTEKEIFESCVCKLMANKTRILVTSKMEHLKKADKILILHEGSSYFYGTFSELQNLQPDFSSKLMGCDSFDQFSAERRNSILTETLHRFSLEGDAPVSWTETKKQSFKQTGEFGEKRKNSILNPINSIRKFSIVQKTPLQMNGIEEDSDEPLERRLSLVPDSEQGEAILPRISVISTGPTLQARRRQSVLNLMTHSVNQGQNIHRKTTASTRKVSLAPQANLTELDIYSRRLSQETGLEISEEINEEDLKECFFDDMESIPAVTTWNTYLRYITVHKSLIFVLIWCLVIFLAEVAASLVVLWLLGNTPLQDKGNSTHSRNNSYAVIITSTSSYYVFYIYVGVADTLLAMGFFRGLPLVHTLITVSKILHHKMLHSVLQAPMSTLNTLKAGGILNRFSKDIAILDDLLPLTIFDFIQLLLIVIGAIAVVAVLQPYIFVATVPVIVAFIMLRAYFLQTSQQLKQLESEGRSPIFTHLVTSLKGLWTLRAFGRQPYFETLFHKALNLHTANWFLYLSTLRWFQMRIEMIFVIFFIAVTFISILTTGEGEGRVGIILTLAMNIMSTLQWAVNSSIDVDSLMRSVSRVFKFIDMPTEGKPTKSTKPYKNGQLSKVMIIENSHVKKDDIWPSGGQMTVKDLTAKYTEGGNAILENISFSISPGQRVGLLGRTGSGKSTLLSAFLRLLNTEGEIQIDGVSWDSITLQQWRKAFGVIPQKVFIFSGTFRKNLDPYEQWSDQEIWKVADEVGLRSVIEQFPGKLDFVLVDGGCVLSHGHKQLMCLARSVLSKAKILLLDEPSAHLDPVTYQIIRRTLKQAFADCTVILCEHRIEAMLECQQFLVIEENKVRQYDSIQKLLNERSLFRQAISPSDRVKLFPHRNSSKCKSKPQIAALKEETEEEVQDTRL

Compound	EC50	Max. Activity
CC1(C)C[C@@H]2CN1c1nc(-n3ccc(OCCC4C5(CC5)C45CC5)n3)ccc1C(=O)NS(=O)(=O)c1cccc(n1)NCC(F)(F)C2 (single isomer, unassigned) [Compound 305, 8-[3-(2-{Dispiro[2.0.2.1]heptan-7-yl}ethoxy)-1H-pyrazol-1-yl]-16,16-difluoro-12,12-dimethyl-2λ^6-thia-3,9,11,18,23-pentaazatetracyclo[17.3.1.111,14.05,10]tetracosa-1(22),5,7,9,19(23),20-hexaene-2,2,4-trione]	> 3000 nM	+ (+ is <30%)
C[C@@H]1CC[C@H]2CN(c3nc(N4CCN(CCC(C)(C)C)C4=O)ccc3C(=O)NS(=O)(=O)c3cccc(n3)N1)C(C)(C)C2 (single isomer, unassigned) [Compound 219, 8-[3-(3,3-dimethylbutyl)-2-oxoimidazolidin-1-yl]-12,12,17-trimethyl-2λ^6-thia-3,9,11,18,23-pentaazatetracyclo[17.3.1.111,14.05,10]tetracosa-1(22),5,7,9,19(23),20-hexaene-2,2,4-trione]	< 1000 nM	++ (++ is 30-60%)
CC1(C)C[C@@H]2CCCNc3cccc(n3)S(=O)(=O)NC(=O)c3ccc(-n4ccc(OC[C@@H](O)C5C6(CC6)C56CC6)n4)nc3N1C2 (single isomer, unassigned) [Compound 294]	1000 to 3000 nM	+++ (+++ is >60%)
Cc1nn2cc1S(=O)(=O)NC(=O)c1ccc(-n3ccc(OCCC4(C(F)(F)F)CC4)n3)nc1N1C[C@H](CCCC2)CC1(C)C (single isomer, unassigned) [Compound 92, 12,21,21-trimethyl-4-(3-{2-[1-(trifluoromethyl)cyclopropyl]ethoxy}-1H-pyrazol-1-yl)-10λ^6-thia-1,3,9,13,14-pentaazatetracyclo[17.2.1.111,14.02,7]tricosa-2,4,6,11(23),12-pentaene-8,10,10-trione]	< 1000 nM	++ (++ is 30-60%)
CC1(C)C[C@@H]2CCCNc3cccc(n3)S(=O)(=O)NC(=O)c3ccc(N4CC[C@H](OCCC5(C(F)(F)F)CC5)C4=O)nc3N1C2 (single isomer, unassigned) [Compound 172]	< 1000 nM	++ (++ is 30-60%)
CC1(C)CC[C@H]2CCCCNc3cccc(n3)S(=O)(=O)NC(=O)c3ccc(-n4ccc(OCCC5(C(F)(F)F)CC5)n4)nc3N21 (single isomer, unassigned) [Compound 47, 12,12-dimethyl-8-(3-{2-[1-(trifluoromethyl)cyclopropyl]ethoxy}-1H-pyrazol-1-yl)-2λ^6-thia-3,9,11,20,25-pentaazatetracyclo[19.3.1.05,10.011,15]pentacosa-1(24),5,7,9,21(25),22-hexaene-2,2,4-trione]	< 1000 nM	+++ (+++ is >60%)
CC1(C)C[C@H]2CCNc3cccc(n3)S(=O)(=O)NC(=O)c3ccc(-n4ccc(OCCCC5(C(F)(F)F)CC5)n4)nc3N1C2 (single isomer, unassigned) [Compound 234, 7,7-dimethyl-11-(3-{3-[1-(trifluoromethyl)cyclopropyl]propoxy}-1H-pyrazol-1-yl)-17λ^6-thia-2,8,10,16,22-pentaazatetracyclo[16.3.1.15,8.09,14]tricosa-1(22),9,11,13,18,20-hexaene-15,17,17-trione]	< 1000 nM	++ (++ is 30-60%)
CC(C)(C)CCC[C@H]1CCN(c2ccc3c(n2)N2C[C@@H](CCCNc4cccc(n4)S(=O)(=O)NC3=O)CC2(C)C)C1=O (single isomer, unassigned) [Compound 146]	< 1000 nM	+++ (+++ is >60%)
CC1(C)C[C@H]2CCCNc3ccc(cn3)S(=O)(=O)NC(=O)c3ccc(-n4ccc(OCCC5(C(F)(F)F)CC5)n4)nc3N1C2 (single isomer, unassigned) [Compound 73, 12,12-dimethyl-8-(3-{2-[1-(trifluoromethyl)cyclopropyl]ethoxy}-1H-pyrazol-1-yl)-2λ^6-thia-3,9,11,18,20-pentaazatetracyclo[17.2.2.111,14.05,10]tetracosa-1(22),5,7,9,19(23),20-hexaene-2,2,4-trione]	< 1000 nM	+++ (+++ is >60%)
